# Measured values published in publication PMC8837603, “Lapcin, a potent dual topoisomerase I/II inhibitor discovered by soil metagenome guided total chemical synthesis” (Nature Communications, 2022).
# Columns and labels:
# [1] = molecular target: T1, Human Topoisomerase I (Homo sapiens, UniProt P11387); assay: Human Topoisomerase I DNA relaxation assay; assay type: biochemical
# T1 construct: purchased Inspiralis, UK
# T1 sequence (P11387 1-765): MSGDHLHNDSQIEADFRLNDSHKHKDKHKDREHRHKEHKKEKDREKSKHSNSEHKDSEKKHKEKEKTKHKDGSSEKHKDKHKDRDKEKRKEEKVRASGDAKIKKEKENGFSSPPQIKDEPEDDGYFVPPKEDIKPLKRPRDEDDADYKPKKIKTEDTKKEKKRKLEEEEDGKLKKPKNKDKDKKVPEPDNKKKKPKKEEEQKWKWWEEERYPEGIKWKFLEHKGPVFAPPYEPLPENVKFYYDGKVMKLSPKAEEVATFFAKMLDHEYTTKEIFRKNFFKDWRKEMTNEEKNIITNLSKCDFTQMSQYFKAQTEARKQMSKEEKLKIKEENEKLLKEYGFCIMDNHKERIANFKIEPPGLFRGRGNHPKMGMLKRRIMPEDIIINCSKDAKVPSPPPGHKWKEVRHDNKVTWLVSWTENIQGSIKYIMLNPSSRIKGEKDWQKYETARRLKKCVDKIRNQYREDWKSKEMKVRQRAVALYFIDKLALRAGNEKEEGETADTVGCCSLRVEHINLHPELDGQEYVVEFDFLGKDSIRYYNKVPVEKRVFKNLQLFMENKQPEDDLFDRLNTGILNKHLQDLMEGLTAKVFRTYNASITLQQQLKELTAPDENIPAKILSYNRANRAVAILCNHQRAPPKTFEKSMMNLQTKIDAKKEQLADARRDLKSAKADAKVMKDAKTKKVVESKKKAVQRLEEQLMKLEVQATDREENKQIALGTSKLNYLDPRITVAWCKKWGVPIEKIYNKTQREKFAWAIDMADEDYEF
# Procedure: All values were normalized to the negative control wells. […] All experiments were performed in triplicate (n = 3).
# [2] = molecular target: T2, E. coli gyrase (Escherichia coli, UniProt P0AES4+P0AES6); assay: DNA gyrase supercoiling assay; assay type: biochemical
# T2 construct: purchased TopoGen, USA
# T2 sequence (P0AES4 whole entry, one chain of several): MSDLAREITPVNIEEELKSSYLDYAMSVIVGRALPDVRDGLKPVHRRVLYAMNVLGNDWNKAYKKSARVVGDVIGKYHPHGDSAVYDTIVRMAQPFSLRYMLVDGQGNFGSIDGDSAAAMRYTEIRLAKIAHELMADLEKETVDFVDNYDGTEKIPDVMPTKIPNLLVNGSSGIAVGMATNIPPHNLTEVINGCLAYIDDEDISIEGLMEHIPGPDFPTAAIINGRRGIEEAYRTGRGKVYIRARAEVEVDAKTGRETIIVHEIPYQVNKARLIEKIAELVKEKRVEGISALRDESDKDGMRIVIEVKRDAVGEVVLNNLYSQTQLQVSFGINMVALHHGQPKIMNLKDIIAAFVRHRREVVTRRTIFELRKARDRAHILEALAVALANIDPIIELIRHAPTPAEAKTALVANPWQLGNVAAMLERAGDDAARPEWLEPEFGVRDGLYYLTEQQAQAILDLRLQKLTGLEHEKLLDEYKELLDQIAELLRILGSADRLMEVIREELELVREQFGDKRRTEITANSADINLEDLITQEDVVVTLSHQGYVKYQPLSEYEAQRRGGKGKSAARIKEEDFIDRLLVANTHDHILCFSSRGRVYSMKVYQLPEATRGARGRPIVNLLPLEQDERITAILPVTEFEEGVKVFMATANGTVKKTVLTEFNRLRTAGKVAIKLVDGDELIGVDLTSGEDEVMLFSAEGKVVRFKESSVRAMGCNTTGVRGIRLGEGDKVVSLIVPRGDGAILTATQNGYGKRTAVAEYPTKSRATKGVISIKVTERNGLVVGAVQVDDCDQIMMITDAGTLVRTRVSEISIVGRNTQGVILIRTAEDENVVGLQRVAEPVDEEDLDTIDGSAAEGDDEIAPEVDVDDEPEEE
# Procedure: The DNA gyrase supercoiling assay was conducted with an E. coli gyrase supercoiling kit (TopoGen, USA) in this assay. Ciprofloxacin (Sigma, USA) was used as the positive control. Assay was performed according to the manufacture’s protocol. […] The final volume of the reaction was adjusted to 19 µL with H2O. Finally, 1 µL of fresh diluted E. coli gyrase (1U) was added into the reaction mixture and incubated at 37 °C for 60 min. The reaction was terminated by addition of 2 µL of 10% SDS and 2 µL of 50 µg/mL proteinase K followed by a 30 min at 37 °C. The reaction was then extracted with 20 µL of chloroform/isoamyl alcohol (v:v, 24:1). The aqueous material loaded a on 1% (w/v) agarose gel and separated at 140 v for 1 hour in 0.5% TBE buffer. The gel was visualized using ethidium bromide staining. The intensity of SC plasmid bands was quantified using Analytik Jena image software. The intensity of SC bands was used in the determination of IC50 of tested compounds and the curve were drawn in Prism 9 (9.0.0). The assay was performed in triplicate (n = 3).
# [3] = molecular target: T1, Human Topoisomerase I; assay: Topoisomerase I DNA cleavage assay; assay type: biochemical; conditions: supercoil pBR322, 30 min, 37 °C; nick DNA; two independent times
# Procedure: (§1) Topoisomerase I/II cleavage assay: A commercial Human topoisomerase cleavage assay kit (Inspiralis, UK) was used in this study with a slight modification. Camptothecin (Sigma, USA) and Etoposide (Sigma, USA) were used as the positive control for topoisomerase I cleavage assay and topoisomerase II cleavage assay, respectively. The assay was performed according to the manufacture’s protocol. Briefly, 29 µL of the master mixture was prepared by adding 3 µL of 10 x assay buffer, 1 µL of 1 µg/µL supercoil pBR322, 1 µL of 30 mM ATP (only used in topoisomerase II cleavage assay), 1.5 µL serial diluted compounds (dissolved in DMSO) and H2O. Finally, 1 µL of 10 U/µL human topoisomerase I/II alpha was added to the reaction mixture. The reaction was incubated for 30 minutes at 37℃. After incubation, 3 µL of 2% (w/v) SDS and 1.5 µL of 10 mg/mL proteinase K was added. The reaction was mixed briefly and incubated for another 30 minutes at 37 ℃. The reaction was stopped by added 10 µL of H2O, 40 µL of STEB stop buffer and 40 µL of Chloroform/isoamyl alcohol (v:v, 24:1). The mixture was vortexed vigorously for 10 secs and centrifuged for 2 minutes. 20 µL of aqueous phase was loaded onto 1% (w/v) agarose gel and separated at 80 V for 2 hours in 0.5% TBE buffer. […]
# [4] = tested on: human topoisomerase II alpha; assay: Topoisomerase II DNA cleavage assay; assay type: biochemical; conditions: supercoil pBR322, ATP, 30 min, 37 °C; linear DNA; two independent times
# Procedure: as §1
# [5] = tested on: Topo II; assay: Enzyme concentration dependence, Topo II activity assay; assay type: biochemical; conditions: unlike known DNA intercalators; Supplementary Fig. 38
# [6] = tested on: Acinetobacter baumannii ATCC17978; conditions: LB, 16 h, 37 °C, n = 2
# Procedure: (§2) Lapcin was tested for antimicrobial activity against the bacteria and fungi shown in Supplementary Table 4. […] Lapcin was dissolved in sterile DMSO to make a 3.2 mg/mL working solution. Lapcin was diluted across 96-well plates using a 2-fold serial dilution method to give a concentration range of 64 to 0.06 µg/mL in 50 µL of LB broth. A single colony of each test organism was grown in either 5 mL LB (bacteria) or YPD (fungi) medium overnight at 37 °C or 30 °C, respectively. Saturated overnight cultures were diluted 5,000-fold, and then 50 µL of dilute cells were transferred into each well of the assay plates. Finally, each well contains a total volume of 100 µL.
# [7] = tested on: Enterobacter cloacae ATCC13047; conditions: LB, 16 h, 37 °C, n = 2
# Procedure: as §2
# [8] = tested on: Klebsiella pneumonia ATCC10031; conditions: LB, 16 h, 37 °C, n = 2
# Procedure: as §2
structure (smiles),measurement,setting,value
"CCCCCCCCCCCC(O)CC(=O)N[C@@H](C)C(=O)N[C@@H](CO)C(=O)N[C@@H](C)C(=O)Nc1ccc(-c2nc(-c3nc(C(=O)N[C@@H](CC(N)=O)C(=O)Nc4ccc(C(=O)Nc5ccc(C(=O)Nc6ccc(C(=O)O)cc6)c(O)c5OC(C)C)cc4)cs3)cs2)cc1 (stereo partly drawn) [Lapcin, 4-(4-(4-((2S)-4-amino-2-(2'-(4-((2S)-2-((2S)-3-hydroxy-2-((2S)-2-(3-hydroxytetradecanamido)propanamido)propanamido)propanamido)phenyl)-[2,4'-bithiazole]-4-carboxamido)-4-oxobutanamido)benzamido)-2-hydroxy-3-isopropoxybenzamido)benzoic acid]","fold more potent than camptothecin, topoisomerase I",[1],14 times
same,IC50,"[1]; supercoiled pBR322, 30 min, 37 °C, gel, ethidium bromide, n = 3",2170 nM
same,IC50,[2],> 20.5 µM
same,"accumulation of cleavage product, Topo I",[3],did not observe the accumulation of a cleavage product
same,"accumulation of cleavage product, Topo II",[4],did not observe the accumulation of a cleavage product
same,"dependence of activity on enzyme concentration, Topo II",[5],strong dependence on enzyme concentration
same,"MIC, Acinetobacter baumannii",[6],> 32 µg/mL
same,"MIC, Enterobacter cloacae",[7],> 32 µg/mL
same,"MIC, Klebsiella pneumonia",[8],> 32 µg/mL
